Measurements reported in patent US11058654B2, “Compositions and methods for the treatment of hemoglobinopathies and thalassemias” (AXCELLA HEALTH INC., priority 2018, dated 2021).

Tests used:
Assay type in all cases: cell-based, human
[1] = tested on: whole blood of healthy control donors; test: Reactive oxygen species (DCF fluorescence, H2O2) in whole blood of healthy controls; settings: healthy control donors; treated with H2O2; dose-responsive
Method: (§1) Whole blood samples were appropriately diluted in Ca^2+- and Mg^2+-free Dulbecco's phosphate buffered saline (DPBS, Life Technologies) and the concentration of erythrocytes (RBC/ml) was measured on a Cellometer K2 Fluorescent Viability Cell Counter according to the manufacturer's RBC/AOPI protocol (Nexcelom Biosciences).
(§2) Cells were then diluted to 1*10^6 RBC/ml into either prewarmed 37° C. […] 2′-7′-dichlorofluorescin diacetate (DCF, Millipore Sigma), 20 mM in dimethyl sulfoxide (DMSO, Fisher) were added to a working concentration of 100 μM. Cells were incubated with dye for 15 minutes at 37° C., 5% CO2 in a tissue culture incubator, washed once, and resuspended in the 0.9 volumes of the same prewarmed 37° C. buffer with 5 minute spins at 500× g, accel/decal=5 in a swing arm centrifuge (Beckman Coulter). […] Where possible due to solubility constrains, pH-7.4-adjusted stock solutions of amino acids were used. Wells were mixed by pipetting and plates incubated at 37° C., 5% CO2 in a tissue culture incubator for 30 minutes. Optionally, 40 mM H2O2(Millipore Sigma) freshly prepared in the same buffer was added to bring the concentration to 2 mM, wells mixed by pipetting, and plates were incubated an additional 30, 60, 120, or 240 minutes before fluorescence measurement of ROS signal on a Synergy H4 (BioTek) microplate reader with excitation=488 nm and emission=530 nm, and gain either set to autogain, 75, or 100.

[2] = tested on: sickle cell disease patient blood; test: Reactive oxygen species (DCF fluorescence, H2O2) in sickle cell disease patient blood; settings: treated with H2O2 and untreated in DPBS
Method: as §1, §2

ICAM-1 = ICAM-1 cell integrated intensity in HLMVEC treated with TNFa; settings: 0.5 ng/mL TNFα; amino acids at 20×; 24 hours; in words
Text: (§3) A VEC model was employed to assess the ability of amino acids to influence aspects of vascular dysfunction in SCD. TNFa treatment of healthy donor HLMVEC mimics the SCD disease state and induces expression of adhesion markers ICAM-1 and VCAM-1, and secretion of proinflammatory cytokine IL-6. It is established that levels of ICAM-1, VCAM-1, and IL-6 can contribute to SCD pathology and correlate with the incidence and severity of complications in SCD patients. The VEC model sought to test the ability of amino acids to reduce the TNFa-induced disease phenotype by lowering expression of adhesion markers (ICAM-1 and VCAM-1) and inflammatory cytokines (IL-6) while promoting VEC health and viability.
Primary Human Lung Microvascular Endothelial Cells (HLMVEC; Lonza) were seeded at 6,000 cells per well in Endothelial Cell Growth Basal Medium-2 (Lonza) supplemented with Fetal Bovine Serum (FBS; Lonza), human EGF (Lonza), human VEGF (Lonza), R3-Insulin-like Growth Factor-1 (Lonza), ascorbic acid (Lonza), hydrocortisone (Lonza), human FGF-beta (Lonza), and gentamicin/amphotericin-b (Lonza) in a 96-well plate (Thermo Fisher). […]
(§4) Antibody binding was detected by fluorescence microscopy using a high content imager (Molecular Devices). Images were analyzed using MetaXpress 6 software to determine the integrated intensity per cell for each wavelength corresponding to ICAM-1 or VCAM-1.

VCAM-1 = VCAM-1 cell integrated intensity in HLMVEC treated with TNFa; settings: 0.5 ng/mL TNFα; amino acids at 20×; 24 hours; in words
Text: as §3
Primary Human Lung Microvascular Endothelial Cells (HLMVEC; Lonza) were seeded at 6,000 cells per well in Endothelial Cell Growth Basal Medium-2 (Lonza) supplemented with Fetal Bovine Serum (FBS; Lonza), human EGF (Lonza), human VEGF (Lonza), R3-Insulin-like Growth Factor-1 (Lonza), ascorbic acid (Lonza), hydrocortisone (Lonza), human FGF-beta (Lonza), and gentamicin/amphotericin-b (Lonza) in a 96-well plate (Thermo Fisher). The cells were incubated for 45 minutes at room temperature, then incubated overnight at 37° C./5% CO2.
Following overnight incubation, cell were washed once with 150 μL of Dulbecco's phosphate buffered saline (DPBS; Gibco), and then treated with Endothelial Basal Medium MCB-131 (amino acid, glucose, sodium pyruvate, and phenol red free; US Biologicals) containing a defined custom amino acid concentration based on physiological concentrations in blood of patients with SCD (thus recapitulating observed metabolic imbalances such as the depletion of certain essential amino acids including arginine and aspartate and enrichment of certain non-essential amino acids including glutamate and asparagine), dialyzed FBS (Hyclone), human EGF (Lonza), human VEGF (Lonza), R3-Insulin-like Growth Factor-1 (Lonza), ascorbic acid (Lonza), hydrocortisone (Lonza), human FGF-beta (Lonza), and gentamicin/amphotericin-b (Lonza), glucose, 10 mM HEPES, sodium pyruvate, and sodium bicarbonate supplemented with one of the following: • a. PBS (vehicle control), • b. 0.5 ng/mL Tumor Necrosis Factor alpha (TNFα) and PBS, or; • c. 0.5 ng/mL TNFα and amino acid treatments at 20× mean physiological concentrations in plasma based on values published in the Human Metabolome Database (HMDB) in PBS.
After 24 hours of treatment, cells were washed once with 150 μL of DPBS (Gibco), then fixed with 4% paraformaldehyde. […]
as §4

CC(=O)N[C@@H](CS)C(=O)O [N-Acetyl Cysteine, N-acetylcysteine]
ROS measured in whole blood [1]: reduced ROS | ROS measured in whole blood [2]: reduced ROS | TNF-α induced ICAM-1 expression levels in HLMVEC (ICAM-1): reduced levels of ICAM-1 expression to a lesser extent | VCAM-1 expression in HLMVEC (VCAM-1): greatly reduced
